{
  "source": "paper PMC9394284",
  "about": "“Discovery of Novel Dual Adenosine A2A and A1 Receptor Antagonists with 1H-Pyrazolo[3,4-d]pyrimidin-6-amine Core Scaffold as Anti-Parkinson’s Disease Agents” (Pharmaceuticals, 2022)",
  "key": {"[1]": {"target": "T1, A1 adenosine receptor (Homo sapiens, UniProt P30542)", "T1 sequence (P30542 1-326)": "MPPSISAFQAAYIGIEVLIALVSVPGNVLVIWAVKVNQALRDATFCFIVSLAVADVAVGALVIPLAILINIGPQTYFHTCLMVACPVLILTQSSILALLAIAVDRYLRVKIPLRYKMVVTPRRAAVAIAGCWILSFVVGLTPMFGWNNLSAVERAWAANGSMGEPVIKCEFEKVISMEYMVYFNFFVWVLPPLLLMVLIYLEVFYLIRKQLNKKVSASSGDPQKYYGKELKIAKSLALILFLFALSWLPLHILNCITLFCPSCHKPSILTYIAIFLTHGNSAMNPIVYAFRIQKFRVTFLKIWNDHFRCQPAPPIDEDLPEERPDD", "assay": "cyclic AMP HTRF functional assay, CHO-K1 (A1)", "format": "cell-based", "settings": "CHO-K1 cells", "protocol": "Next, the functional activity of 11o against A1 and A2A adenosine receptors was evaluated using c-AMP assay in CHO-K1 (A1) and HEK-293 (A2A) cells.\nFor functional studies, A1 and A2A receptor cyclic AMP HTRF (homogeneous time resolved fluorescence) assay was performed at EuroscreenFast (Charleroi, Belgium) using CHO-K1 (A1) and HEK293 (A2A) stable cell line with CPA (A1) and NECA (A2A) as reference agonist and DPCPX (A1) and ZM241385 (A2A) as reference antagonist compound."}, "[2]": {"assay": "metabolic stability in cryopreserved mouse hepatocytes", "protocol": "(§1) Metabolic stability of 11o was determined in cryopreserved hepatocytes from mice, rats, dogs, monkeys and human according to the SOPs of Frontage Laboratories Inc. Briefly, cryopreserved hepatocytes for pre-clinical animals and for human (BioIVT, Westbury, NY, USA) were thawed in a 37 °C water bath with gentle shaking until ice had almost melted. The suspensions were immediately transferred to a centrifuge tube (50 mL) containing pre-warmed thawing media at 37 °C with gentle handshaking to prevent the cells from settling. Cell suspensions were centrifuged at 50× g and 4 °C for 5 min. The supernatant was discarded and the pellets were resuspended in prewarmed incubation media (5 mL) at 37 °C. The percentage of viable cells in the suspension was determined by Trypan blue staining method to ensure viability of ≥70 %. […] The samples were centrifuged and aliquots of the supernatant were analyzed for parent compounds by LC/MS/MS using suitable multiple reaction monitoring (MRM) transitions. […] The disappearance of 11o and midazolam was monitored by LC/MS/MS (MRM) analysis of the hepatocyte extracts at each time point. The peak area ratio of the analyte to internal standard was obtained for each sample and the rate of disappearance of 11o was assessed by comparing the peak area ratios at various time points to the peak area ratio obtained at t = 0. The t1/2 is obtained (using the linear portion of semi-log plot of the area ratio vs. time) and the CLint values determined using well-stirred model."}, "[3]": {"assay": "metabolic stability in cryopreserved rat hepatocytes", "protocol": "as §1"}, "[4]": {"assay": "maximum tolerated dose, single oral administration, rat", "settings": "both sexes, in vivo, single oral administration, male and female Sprague Dawley rats", "protocol": "(§2) Rat and dog MTD studies were performed at Frontage Laboratories Inc following testing facility’s SOPs. All procedures described were reviewed and approved by the Institutional Animal Care and Use Committee (IACUC) at Frontage Laboratories Inc.\n(§3) For rat MTD study, male and female Sprague Dawley rats (Rattus norvegicus) of 8.1~9.6 weeks of age were purchased from Charles River Laboratories, USA and maintained at standard food and water ad libitum in temperature-controlled room with 12 h on-off light cycle before the experiment. Animals were acclimated to the testing facility for at least 6 to 16 days prior to initiation of dosing. Animals received a single dose of 11o in 0.5% methyl cellulose via oral gavage starting from 150 mg/kg dose level (this initial dose level was selected based on available data and the estimated toxicity using EPA’s toxicity estimation software tool (TEST) version 4.2.1) in 10 mL/kg dose volume. Subsequent doses occurred 3 or 4 days following the previous dose and were increased based on findings from the previous dosing(s). The procedure continued until four dosing events occurred. Animals were observed once in the morning and once in the afternoon throughout the study for clinical observations. Body weights were measured on the day prior to dose administration. […]"}, "[5]": {"system": "Sprague Dawley rats", "assay": "maximum tolerated dose, single oral administration, rat", "settings": "in vivo, po", "protocol": "as §2, §3"}, "[6]": {"settings": "CD-1, mouse, cryopreserved hepatocytes in suspension"}, "[7]": {"settings": "Sprague Dawley, rat, cryopreserved hepatocytes in suspension"}},
  "data": [
    {"compound": "Cc1cc(Cn2ncc3c(-c4cccc(C#N)c4F)nc(N)nc32)ccc1N", "note": "[11o, 3-(6-Amino-1-(4-amino-3-methylbenzyl)-1H-pyrazolo[3,4-d]pyrimidin-4-yl)-2-fluorobenzonitrile]", "values": [
      {"measurement": "functional activity at A1 receptor", "setting": "[1]", "result": "full antagonism"},
      {"measurement": "IC50", "setting": "[1]; read-out: IC50, A1 functional antagonism (c-AMP)", "result": 98.8, "unit": "nM"},
      {"measurement": "CLint scaled at 1 μM", "setting": "[2]; [6]", "result": 115, "unit": "mL/min/kg"},
      {"measurement": "half-life at 1 μM", "setting": "[2]; [6]", "result": 70.9, "unit": "min"},
      {"measurement": "hepatocyte CLint at 1 μM", "setting": "[2]; [6]", "result": 9.8, "unit": "µL/min/1e6 cells"},
      {"measurement": "Intrinsic Clearance", "setting": "[2]; mouse hepatocytes, 1 μM 11o", "result": 0.00977, "unit": "mL/min/10^6 Cells"},
      {"measurement": "CLint scaled at 1 μM", "setting": "[3]; [7]", "result": 69.2, "unit": "mL/min/kg"},
      {"measurement": "half-life at 1 μM", "setting": "[3]; [7]", "result": 46.9, "unit": "min"},
      {"measurement": "hepatocyte CLint at 1 μM", "setting": "[3]; [7]", "result": 14.8, "unit": "µL/min/1e6 cells"},
      {"measurement": "Intrinsic Clearance", "setting": "[3]; rat hepatocytes, 1 μM 11o", "result": 0.0148, "unit": "mL/min/10^6 Cells"},
      {"measurement": "MTD", "setting": "[4]", "result": "> 1000", "unit": "mg/kg"},
      {"measurement": "body weight loss or mortality in rats", "setting": "[5]", "result": "no body weight loss or mortality observed"}
    ]}
  ]
}
